# Active and inactive are the calls of the source. The rule behind the calls is not given here.
# System: GENE-TOX genotoxicity assays, various organisms and cells
# Test: GENE-TOX mutagenicity studies
# Settings: for call: Assay Type: In vivo carcinogenicity studies
# [1] = Species/Cell Type: Nonhuman, Assay Code: CCG+, Evaluation Type: Evaluation A (Pre-1980)
# [2] = Species/Cell Type: Salmonella typhimurium (one or more of the five standard strains: TA98, TA100, TA1535, TA1537, and TA1538), Assay Type: Histidine reverse gene mutation, Ames assay, Assay Code: SALT, Evaluation Type: Evaluation A (Pre-1980)
# [3] = Species/Cell Type: Salmonella typhimurium (one or more of the five standard strains: TA98, TA100, TA1535, TA1537, and TA1538), Assay Type: Histidine reverse gene mutation, Ames assay, Assay Code: SAL+*, Activation: With metabolic activation, Evaluation Type: Evaluation A (Pre-1980)
# [4] = Species/Cell Type: Salmonella typhimurium (one or more of the five standard strains: TA98, TA100, TA1535, TA1537, and TA1538), Assay Type: Histidine reverse gene mutation, Ames assay, Assay Code: SAL+, Evaluation Type: Evaluation A (Pre-1980)
# [5] = Species/Cell Type: Nonhuman, Assay Type: Sister-chromatid exchange (SCE) in vitro, Assay Code: SC2+, Evaluation Type: Evaluation B (Post-1980)
# [6] = Species/Cell Type: Drosophila melanogaster, Assay Type: Sex-linked recessive lethal gene mutation, Assay Code: SRLT, Evaluation Type: Evaluation A (Pre-1980)
# [7] = Species/Cell Type: Drosophila melanogaster, Assay Type: Sex-linked recessive lethal gene mutation, Assay Code: SRL+, Evaluation Type: Evaluation A (Pre-1980)
compound,measurement,setting,value
CCCCCCC(=O)O[C@H]1CC[C@H]2[C@@H]3CCC4=CC(=O)CC[C@]4(C)[C@H]3CC[C@]12C,mutagenic call,"Species/Cell Type: Human, Sex: Male, Assay Type: Sperm morphology, Assay Code: SPH+, Evaluation Type: Evaluation A (Pre-1980)",active; positive
same,call,[1],active; positive
CC1CC2=C(CCC2=O)c2ccc3ccccc3c21 (stereo unspecified),mutagenic call,[2],no conclusion
CC(=O)OCN(Cc1ccccc1)N=O,mutagenic call,[2],no conclusion
CCOP(=S)(OCC)SCSc1ccc(Cl)cc1,mutagenic call,"Species/Cell Type: Human, Assay Type: Sister-chromatid exchange (SCE) in vitro, Assay Code: SC1+, Evaluation Type: Evaluation B (Post-1980)",active; positive
C[C@H]1c2cccc(O)c2C(O)=C2C(=O)[C@]3(O)C(O)=C(C(N)=O)C(=O)[C@@H](N(C)C)[C@@H]3[C@@H](O)[C@@H]21,mutagenic call,"Species/Cell Type: Human, Sex: Male, Assay Type: Sperm morphology, Assay Code: SPHT, Evaluation Type: Evaluation A (Pre-1980)",no conclusion
c1ccc2c(c1)cc1ccc3cc4ccccc4c4ccc2c1c34,call,[1],active; positive
same,mutagenic call,[3],active; positive
Cc1ccc2c(c1[N+](=O)[O-])C(=O)c1cccc([N+](=O)[O-])c1C2=O,mutagenic call,[4],active; positive
O=C1c2ccccc2C(=O)c2c(NCCNCCO)ccc(O)c21,mutagenic call,[5],active; positive
OCc1c2c(cc3ccccc13)-c1ccccc1C1OC21 (stereo unspecified),mutagenic call,"Species/Cell Type: Mouse prostate cells, Assay Type: Cell transformation, Assay Code: CTM+, Evaluation Type: Evaluation A (Pre-1980)",active; positive
[Cl][Cu][Cl],mutagenic call,"Species/Cell Type: Bacillus subtilis (H17 vs M45), Assay Type: Rec-assay, spot test, DNA effects (bacterial DNA repair), Assay Code: REW-, Evaluation Type: Evaluation A (Pre-1980)",inactive; negative
O=[As]O,mutagenic call,"Species/Cell Type: Bacillus subtilis (H17 vs M45), Assay Type: Rec-assay, spot test, DNA effects (bacterial DNA repair), Assay Code: REW+, Evaluation Type: Evaluation A (Pre-1980)",active; positive
same,mutagenic call,"Species/Cell Type: Chinese hamster ovary (CHO) cells, Assay Type: Forward gene mutation at the HPRT locus, Assay Code: CHOT, Evaluation Type: Evaluation B (Post-1980)",no conclusion
same,mutagenic call,"Species/Cell Type: Human lymphocytes, Assay Type: Sister-chromatid exchange (SCE) in vitro, Assay Code: SCL+D*, Activation: With metabolic activation, Dose Response: With dose response, Evaluation Type: Evaluation B (Post-1980)",active; positive
same,mutagenic call,"Species/Cell Type: Human, Assay Type: Sister-chromatid exchange (SCE) in vitro, Assay Code: SC1+D*, Activation: With metabolic activation, Dose Response: With dose response, Evaluation Type: Evaluation B (Post-1980)",active; positive
same,mutagenic call,"Species/Cell Type: Mammalian polychromatic erythrocytes, Assay Type: Micronucleus test, chromosome aberrations, Assay Code: MNT+, Evaluation Type: Evaluation B (Post-1980)",active; positive
same,mutagenic call,[5],active; positive
same,mutagenic call,"Species/Cell Type: Syrian hamster embryo (SA7/SHE) cells, Assay Type: Cell transformation, viral enhanced, Assay Code: CT7+, Evaluation Type: Evaluation A (Pre-1980)",active; positive
Cc1ccc(C(C)C)c(O)c1,mutagenic call,"Species/Cell Type: Allium cepa, Assay Type: Chromosome aberrations, Assay Code: ALC-, Evaluation Type: Evaluation A (Pre-1980)",inactive; negative
same,mutagenic call,[6],no conclusion
CN(C)C(=O)Nc1ccc(Cl)cc1,mutagenic call,"Species/Cell Type: Bacillus subtilis (H17 vs M45), Assay Type: Rec-assay, spot test, DNA effects (bacterial DNA repair), Assay Code: REWT, Evaluation Type: Evaluation A (Pre-1980)",no conclusion
same,mutagenic call,[6],no conclusion
same,mutagenic call,"Species/Cell Type: Escherichia coli WP2 UVRA, Assay Type: Tryptophan reverse gene mutation, Assay Code: WPU-*, Activation: With metabolic activation, Evaluation Type: Evaluation A (Pre-1980)",inactive; negative
same,mutagenic call,"Species/Cell Type: Escherichia coli polA (W3119 vs P3478), Assay Type: Rec-assay, DNA effects (bacterial DNA repair), Assay Code: RE1T, Evaluation Type: Evaluation A (Pre-1980)",no conclusion
same,mutagenic call,"Species/Cell Type: Hordeum vulgare (barley), Assay Type: Chromosome aberrations, Assay Code: HOC+, Evaluation Type: Evaluation A (Pre-1980)",active; positive
same,mutagenic call,"Species/Cell Type: Human diploid fibroblasts, Assay Type: Unscheduled DNA synthesis (UDS) in vitro, DNA effects, Assay Code: UDH-, Evaluation Type: Evaluation A (Pre-1980)",inactive; negative
same,call,"Species/Cell Type: Nonhuman, Assay Code: CCG+L, Evaluation Type: Evaluation A (Pre-1980)",active; positive
same,mutagenic call,"Species/Cell Type: Saccharomyces cerevisiae, Assay Type: Mitotic recombination or gene conversion, Assay Code: YEH-, Evaluation Type: Evaluation A (Pre-1980)",inactive; negative
C=C(C)CC(C)(C)C,mutagenic call,[2],no conclusion
O=NN1CCOCC1,mutagenic call,"Species/Cell Type: Chinese hamster lung (V79) cells, Assay Type: Forward gene mutation at the HPRT or ouabain locus, Assay Code: V79+, Evaluation Type: Evaluation A (Pre-1980)",active; positive
same,mutagenic call,[7],active; positive
same,mutagenic call,"Species/Cell Type: Drosophila melanogaster, Sex: Male, Assay Type: Heritable translocation test, chromosome aberrations, Assay Code: DHTT, Evaluation Type: Evaluation A (Pre-1980)",no conclusion
same,mutagenic call,"Species/Cell Type: Human lymphocytes or leukocytes, Assay Type: Chromosome aberrations in vivo, Assay Code: CY8+, Evaluation Type: Evaluation A (Pre-1980)",active; positive
same,mutagenic call,"Species/Cell Type: Mammalian polychromatic erythrocytes, Assay Type: Micronucleus test, chromosome aberrations, Assay Code: MNT+, Evaluation Type: Evaluation A (Pre-1980)",active; positive
same,mutagenic call,"Species/Cell Type: Mouse, Sex: Male, Assay Type: Sperm morphology, Assay Code: SPI-, Evaluation Type: Evaluation A (Pre-1980)",inactive; negative
same,mutagenic call,"Species/Cell Type: Nonhuman lymphocytes or leukocytes, Assay Type: Chromosome aberrations in vivo, Assay Code: CY%+, Evaluation Type: Evaluation A (Pre-1980)",active; positive
same,call,[1],active; positive
same,mutagenic call,"Species/Cell Type: Nonhuman, Assay Type: Sister-chromatid exchange (SCE) in vitro, Assay Code: SC2+D*, Activation: With metabolic activation, Dose Response: With dose response, Evaluation Type: Evaluation B (Post-1980)",active; positive
same,mutagenic call,"Species/Cell Type: Nonhuman, Assay Type: Sister-chromatid exchange (SCE) in vivo, Assay Code: SC3+D, Dose Response: With dose response, Evaluation Type: Evaluation B (Post-1980)",active; positive
same,mutagenic call,"Species/Cell Type: Rat primary hepatocytes, Assay Type: Unscheduled DNA synthesis (UDS) in vitro, DNA effects, Assay Code: UDP+, Evaluation Type: Evaluation A (Pre-1980)",active; positive
same,mutagenic call,[2],no conclusion
same,mutagenic call,"Species/Cell Type: Salmonella typhimurium, Assay Type: Forward and reverse gene mutation, host-mediated assay, Assay Code: HMA+, Evaluation Type: Evaluation A (Pre-1980)",active; positive
Cc1c(N)nc(C(CC(N)=O)NCC(N)C(N)=O)nc1C(=O)NC(C(=O)NC(C)C(O)C(C)C(=O)NC(C(=O)NCCc1nc(-c2nc(C(=O)NCCC[S+](C)C)cs2)cs1)C(C)O)C(O[C@@H]1O[C@@H](CO)[C@@H](O)[C@H](O)[C@@H]1O[C@H]1O[C@H](CO)[C@@H](O)[C@H](OC(N)=O)[C@@H]1O)c1cnc[nH]1 (stereo partly specified),mutagenic call,"Species/Cell Type: Human lymphocytes, Assay Type: Sister-chromatid exchange (SCE) in vitro, Assay Code: SCLT, Evaluation Type: Evaluation B (Post-1980)",no conclusion
same,mutagenic call,"Species/Cell Type: Human, Assay Type: Sister-chromatid exchange (SCE) in vitro, Assay Code: SC1T, Evaluation Type: Evaluation B (Post-1980)",no conclusion
same,mutagenic call,"Species/Cell Type: Saccharomyces cerevisiae, Assay Type: Mitotic recombination or gene conversion, Assay Code: YEC+, Evaluation Type: Evaluation A (Pre-1980)",active; positive
same,mutagenic call,"Species/Cell Type: Saccharomyces cerevisiae, Assay Type: Mitotic recombination or gene conversion, Assay Code: YEH+, Evaluation Type: Evaluation A (Pre-1980)",active; positive
same,mutagenic call,"Species/Cell Type: Saccharomyces cerevisiae, Assay Type: Reverse gene mutation, Assay Code: YER+, Evaluation Type: Evaluation A (Pre-1980)",active; positive
ONc1ccc2c(c1)Cc1ccccc1-2,mutagenic call,[6],no conclusion
same,mutagenic call,"Species/Cell Type: Escherichia coli polA (W3119 vs P3478), Assay Type: Rec-assay, DNA effects (bacterial DNA repair), Assay Code: RE1+, Evaluation Type: Evaluation A (Pre-1980)",active; positive
same,mutagenic call,[4],active; positive
CSc1ccc2c(c1)N(CCC1CCCCN1C)c1ccccc1S2 (stereo unspecified),mutagenic call,[7],active; positive
same,mutagenic call,"Species/Cell Type: Drosophila melanogaster, Sex: Male, Assay Type: Heritable translocation test, chromosome aberrations, Assay Code: DHT+, Evaluation Type: Evaluation A (Pre-1980)",active; positive
same,mutagenic call,"Species/Cell Type: Mammalian polychromatic erythrocytes, Assay Type: Micronucleus test, chromosome aberrations, Assay Code: MNTT, Evaluation Type: Evaluation B (Post-1980)",no conclusion
O=NN1CCC(=O)CC1,mutagenic call,[6],no conclusion
same,mutagenic call,[3],active; positive

# Source: PubChem BioAssay AID1259408 (Genetic Toxicology Data Bank (GENE-TOX), 2018)
